# System: 282377-053-R-J1-PDC complex spheroid viability
# Test: Anticancer human tumor 282377-053-R-J1-PDC patient-derived colon adenocarcinoma cell line growth inhibition [RAS]
# Conditions: for IC50: curve of first compound; for viability, T/C: stronger effect = lower value
# Method in brief: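 Multi-cell-type spheroids: tumor cells plus HUVEC endothelial cells and mesenchymal stem cells. RAS-pathway inhibitors were combined with targeted agents, each dosed in half-log steps down from clinical Cmax, or from 10 microM when Cmax was unknown.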
# [1] = second compound 0.0316 µM, first compound 0.0316 µM
# [2] = second compound 0.0316 µM, first compound 0.1 µM
# [3] = second compound 0.0316 µM, first compound 0.316 µM
# [4] = second compound 0.0316 µM, first compound 1 µM
# [5] = second compound 0.0316 µM, first compound 3.16 µM
# [6] = second compound 0.0316 µM, first compound 10 µM
# [7] = second compound 0.1 µM, first compound 0.0316 µM
# [8] = second compound 0.1 µM, first compound 0.1 µM
# [9] = second compound 0.1 µM, first compound 0.316 µM
# [10] = second compound 0.1 µM, first compound 1 µM
# [11] = second compound 0.1 µM, first compound 3.16 µM
# [12] = second compound 0.1 µM, first compound 10 µM
# [13] = second compound 0.316 µM, first compound 0.0316 µM
# [14] = second compound 0.316 µM, first compound 0.1 µM
# [15] = second compound 0.316 µM, first compound 0.316 µM
# [16] = second compound 0.316 µM, first compound 1 µM
# [17] = second compound 0.316 µM, first compound 3.16 µM
# [18] = second compound 0.316 µM, first compound 10 µM
# [19] = second compound 1 µM, first compound 0.0316 µM
# [20] = second compound 1 µM, first compound 0.1 µM
# [21] = second compound 1 µM, first compound 0.316 µM
# [22] = second compound 1 µM, first compound 1 µM
# [23] = second compound 1 µM, first compound 3.16 µM
# [24] = second compound 1 µM, first compound 10 µM
# [25] = second compound 3.16 µM, first compound 0.0316 µM
# [26] = second compound 3.16 µM, first compound 0.1 µM
# [27] = second compound 3.16 µM, first compound 0.316 µM
# [28] = second compound 3.16 µM, first compound 1 µM
# [29] = second compound 3.16 µM, first compound 3.16 µM
# [30] = second compound 3.16 µM, first compound 10 µM
# [31] = second compound 10 µM, first compound 0.0316 µM
# [32] = second compound 10 µM, first compound 0.1 µM
# [33] = second compound 10 µM, first compound 0.316 µM
# [34] = second compound 10 µM, first compound 1 µM
# [35] = second compound 10 µM, first compound 3.16 µM
# [36] = second compound 10 µM, first compound 10 µM
# 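Also: spheroids exposed to agents for seven days before readout.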
# 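For viability, T/C in this document: luminescence viability as percent of DMSO vehicle control wells.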
smiles,measurement,setting,value
CC(C)NCC(C(=O)N1CCN(c2ncnc3c2C(C)CC3O)CC1)c1ccc(Cl)cc1 (centres undefined) + C#Cc1c(F)ccc2cc(O)cc(-c3ncc4c(N5CC6CCC(C5)N6)nc(OCC56CCCN5CC(F)C6)nc4c3F)c12,IC50,second compound 0.0316 µM,> 10 µM
same,IC50,second compound 0.1 µM,> 10 µM
same,IC50,second compound 0.316 µM,> 10 µM
same,IC50,second compound 1 µM,> 10 µM
same,IC50,second compound 3.16 µM,> 10 µM
same,IC50,second compound 10 µM,> 10 µM
same,"viability, T/C",[1],133%
same,"viability, T/C",[2],111%
same,"viability, T/C",[3],88.9%
same,"viability, T/C",[4],94.6%
same,"viability, T/C",[5],84.1%
same,"viability, T/C",[6],82.3%
same,"viability, T/C",[7],88.5%
same,"viability, T/C",[8],86.5%
same,"viability, T/C",[9],76.9%
same,"viability, T/C",[10],90.3%
same,"viability, T/C",[11],83.5%
same,"viability, T/C",[12],72.2%
same,"viability, T/C",[13],104%
same,"viability, T/C",[14],110%
same,"viability, T/C",[15],92.8%
same,"viability, T/C",[16],83%
same,"viability, T/C",[17],85.9%
same,"viability, T/C",[18],85.3%
same,"viability, T/C",[19],105%
same,"viability, T/C",[20],79.8%
same,"viability, T/C",[21],89.2%
same,"viability, T/C",[22],82.5%
same,"viability, T/C",[23],63.7%
same,"viability, T/C",[24],69.5%
same,"viability, T/C",[25],98.5%
same,"viability, T/C",[26],96.7%
same,"viability, T/C",[27],81.4%
same,"viability, T/C",[28],77.7%
same,"viability, T/C",[29],92.1%
same,"viability, T/C",[30],70.4%
same,"viability, T/C",[31],83%
same,"viability, T/C",[32],87.7%
same,"viability, T/C",[33],88.9%
same,"viability, T/C",[34],91.4%
same,"viability, T/C",[35],86.4%
same,"viability, T/C",[36],72.4%
CC1(O)CCCC1n1c(=O)c(C(F)F)cc2cnc(NC3CCN(S(C)(=O)=O)CC3)nc21 (centres undefined) + C#Cc1c(F)ccc2cc(O)cc(-c3ncc4c(N5CC6CCC(C5)N6)nc(OCC56CCCN5CC(F)C6)nc4c3F)c12,IC50,second compound 0.0316 µM,6.26 µM
same,IC50,second compound 0.1 µM,6.08 µM
same,IC50,second compound 0.316 µM,6.1 µM
same,IC50,second compound 1 µM,6.13 µM
same,IC50,second compound 3.16 µM,6.17 µM
same,IC50,second compound 10 µM,6.21 µM
same,"viability, T/C",[1],102%
same,"viability, T/C",[2],115%
same,"viability, T/C",[3],135%
same,"viability, T/C",[4],121%
same,"viability, T/C",[5],121%
same,"viability, T/C",[6],2.6%
same,"viability, T/C",[7],109%
same,"viability, T/C",[8],117%
same,"viability, T/C",[9],128%
same,"viability, T/C",[10],125%
same,"viability, T/C",[11],111%
same,"viability, T/C",[12],3.18%
same,"viability, T/C",[13],117%
same,"viability, T/C",[14],126%
same,"viability, T/C",[15],120%
same,"viability, T/C",[16],108%
same,"viability, T/C",[17],112%
same,"viability, T/C",[18],3.11%
same,"viability, T/C",[19],98.9%
same,"viability, T/C",[20],111%
same,"viability, T/C",[21],123%
same,"viability, T/C",[22],110%
same,"viability, T/C",[23],122%
same,"viability, T/C",[24],3.32%
same,"viability, T/C",[25],94.4%
same,"viability, T/C",[26],127%
same,"viability, T/C",[27],130%
same,"viability, T/C",[28],102%
same,"viability, T/C",[29],113%
same,"viability, T/C",[30],4.31%
same,"viability, T/C",[31],99%
same,"viability, T/C",[32],117%
same,"viability, T/C",[33],116%
same,"viability, T/C",[34],121%
same,"viability, T/C",[35],132%
same,"viability, T/C",[36],2.84%
